Data published in ChEMBL document CHEMBL5365529, “Construction and Evaluation of Novel Dual-function Antifungal Inhibitors and Covalent Organic Framework Carriers Based on the Infection Microenvironment” (J Med Chem, 2023).
≈ marks a conversion by molar mass, not a printed value. Calls of active or inactive are those of the source. No cut-off for these calls is given here.

Legend:
Mus musculus [1] = test: Antiinflammatory activity in BALB/c mouse infected with Candida albicans 901 assessed as decrease in IL-2 level at 0.5 ug/g administered 6 times measured after 4 days by IHC analysis; assay type: functional, organism-based; settings: dose 0.5 µg/g, time 4.0 day
Candida albicans [2] = test: Induction of morphological changes in Candida albicans SC5314 assessed as accumulation of low-density granules measured for 96 to 144 hrs by TEM analysis; assay type: functional, organism-based; settings: time 96-144 hrs
[3] = Toxicity in BALB/c mouse infected with Candida albicans 901 assessed as pathological change in lung at 0.5 ug/g administered 6 times measured after 4 days by H and E staining based analysis; assay type: tissue-based; settings: in vivo, 96 h, dose 0.5 µg/g, time 4 day
Candida albicans [4] = test: Induction of apoptosis in Candida albicans SC5314 assessed as increase in ROS level at 1 uM/ml incubated for 48 hrs by fluorescence microscopy; assay type: functional, organism-based
Candida albicans [5] = test: Induction of morphological changes in Candida albicans SC5314 assessed as change in cell structure measured after 48 hrs by TEM analysis; assay type: functional, organism-based
Candida albicans [6] = test: Antifungal activity against FLC-resistant Candida albicans 17# assessed as fungal growth inhibition incubated for 72 hrs by CLSI based susceptibility test; assay type: functional
[7] = target: T1, Lanosterol 14-alpha demethylase (Candida albicans (strain SC5314 / ATCC MYA-2876) (Yeast), UniProt P10613); test: Inhibition of CYP51 in Candida albicans SC5314 assessed as lanosterol level at 4 ug/ml incubated for 16 hrs by GC-MS analysis relative to control; set-up: scale not given: the % may be the effect or the level left; settings: at 4 µg/mL
[8] = Toxicity in BALB/c mouse infected with Candida albicans 901 assessed as plasma AST level at 0.5 ug/g administered 6 times measured after 4 days (reference value: 50.6 +/- 2.3 IU/L); settings: in vivo, 96 h, dose 0.5 µg/g, time 4 day
Candida albicans [9] = test: Antifungal activity against FLC-resistant Candida albicans 632 assessed as fungal growth inhibition incubated for 72 hrs by CLSI based susceptibility test; assay type: functional
[10] = Toxicity in BALB/c mouse infected with Candida albicans 901 assessed as pathological change in spleen at 0.5 ug/g administered 6 times measured after 4 days by H and E staining based analysis; assay type: tissue-based; settings: in vivo, 96 h, dose 0.5 µg/g, time 4 day
Candida albicans [11] = test: Induction of morphological changes in Candida albicans SC5314 assessed as decrease in cell wall thickness measured after 48 hrs by TEM analysis; assay type: functional, organism-based
Candida albicans [12] = test: Antifungal activity against Candida albicans 901 infected in BALB/c mouse assessed as restoration of infected tissue morphology at 0.5 ug/g administered 6 times measured after 4 days by H and E staining based analysis; assay type: functional, organism-based; settings: dose 0.5 µg/g, time 4.0 day
[13] = target: Programmed cell death 1 ligand 1 (Homo sapiens, UniProt Q9NZQ7); test: Binding affinity to PD-L1 (unknown origin) immobilized on carboxy chip assessed as dissociation constant by SPR analysis
Candida albicans [14] = test: Antifungal activity against Candida albicans 901 infected in BALB/c mouse assessed as decrease in collagen fiber content at 0.5 ug/g administered 6 times measured after 4 days by GMS staining based analysis; assay type: functional, organism-based; settings: dose 0.5 µg/g, time 4.0 day
Candida albicans [15] = test: Antifungal activity against Candida albicans SC5314 assessed as fungal growth inhibition incubated for 72 hrs by CLSI based susceptibility test; assay type: functional
Candida albicans [16] = test: Induction of immunity in BALB/c mouse infected with Candida albicans 901 assessed as decrease in PD-L1 level at 0.5 ug/g administered 6 times measured after 4 days by Western blot analysis; assay type: functional, organism-based; settings: dose 0.5 µg/g, time 4.0 day
[17] = target: T1, Lanosterol 14-alpha demethylase; test: Inhibition of CYP51 in Candida albicans SC5314 assessed as ergosterol level at 4 ug/ml incubated for 16 hrs by GC-MS analysis (reference value: 92.07 %); set-up: scale not given: the % may be the effect or the level left; settings: at 4 µg/mL
[18] = Toxicity in BALB/c mouse infected with Candida albicans 901 assessed as plasma CRE level at 0.5 ug/g administered 6 times measured after 4 days (reference value: 18.48 +/- 2.7 umol/L); settings: in vivo, 96 h, dose 0.5 µg/g, time 4 day
Candida albicans [19] = test: Induction of morphological changes in Candida albicans SC5314 assessed as disappearance of nuclear domains measured for 96 to 144 hrs by TEM analysis; assay type: functional, organism-based; settings: time 96-144 hrs
Candida albicans [20] = test: Antifungal activity against Candida albicans 901 infected in BALB/c mouse assessed as inhibition of fungal proliferation at 0.5 ug/g administered 6 times measured after 4 days by GMS staining based analysis; assay type: functional, organism-based; settings: dose 0.5 µg/g, time 4.0 day
Mus musculus [21] = test: Antiinflammatory activity in BALB/c mouse infected with Candida albicans 901 assessed as decrease in INF-gamma level at 0.5 ug/g administered 6 times measured after 4 days by IHC analysis; assay type: functional, organism-based; settings: dose 0.5 µg/g, time 4.0 day

T1 sequence (P10613 whole entry): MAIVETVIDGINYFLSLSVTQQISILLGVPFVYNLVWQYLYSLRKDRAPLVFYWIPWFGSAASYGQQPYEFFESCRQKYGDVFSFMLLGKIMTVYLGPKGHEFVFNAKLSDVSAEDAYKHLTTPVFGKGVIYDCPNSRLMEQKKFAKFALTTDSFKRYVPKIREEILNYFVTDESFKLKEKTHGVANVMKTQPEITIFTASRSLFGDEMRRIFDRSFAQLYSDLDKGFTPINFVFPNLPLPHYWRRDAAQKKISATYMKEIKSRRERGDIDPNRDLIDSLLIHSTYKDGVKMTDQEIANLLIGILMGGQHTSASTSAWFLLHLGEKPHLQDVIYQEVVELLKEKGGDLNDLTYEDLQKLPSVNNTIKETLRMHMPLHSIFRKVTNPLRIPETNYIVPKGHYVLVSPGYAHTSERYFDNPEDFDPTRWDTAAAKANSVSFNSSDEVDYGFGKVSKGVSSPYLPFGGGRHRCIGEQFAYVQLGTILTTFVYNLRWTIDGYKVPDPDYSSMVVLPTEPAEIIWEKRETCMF
Chain of Programmed cell death 1 ligand 1 (Q9NZQ7 whole entry): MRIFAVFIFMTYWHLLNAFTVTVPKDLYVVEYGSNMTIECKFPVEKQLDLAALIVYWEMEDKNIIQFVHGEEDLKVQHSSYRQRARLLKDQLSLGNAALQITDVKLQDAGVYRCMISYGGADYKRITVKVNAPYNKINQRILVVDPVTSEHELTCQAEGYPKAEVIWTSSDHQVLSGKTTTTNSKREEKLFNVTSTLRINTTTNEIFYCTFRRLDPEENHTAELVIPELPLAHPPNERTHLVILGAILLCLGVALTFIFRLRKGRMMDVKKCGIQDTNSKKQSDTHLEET

## COC(=O)[C@@H](Cn1cncn1)NCc1cccc(OCc2cccc(-c3ccccc3)c2C)c1
Mus musculus [1]
  Activity: Active
Candida albicans [2]
  Activity: Active
[3]
  Activity: Non-Toxic
Candida albicans [4]
  Activity: Active
Candida albicans [5]
  Activity: Active
Candida albicans [6]
  MIC50: 4 µg/mL (≈ 8.76 µM)
[7]
  Activity: 10.47%
[8]
  Activity: 57.4 IU/L
Candida albicans [9]
  MIC50: 4 µg/mL (≈ 8.76 µM)
[10]
  Activity: Non-Toxic
Candida albicans [11]
  Activity: Active
Candida albicans [12]
  Activity: Active
[13]
  Kd: 15 nM
Candida albicans [14]
  Activity: Active
Candida albicans [15]
  MIC50: 0.125 µg/mL (≈ 0.274 µM)
Candida albicans [16]
  Activity: Active
[17]
  Activity: 9.72%
[18]
  Activity: 10.91 µmol/L
Candida albicans [19]
  Activity: Active
Candida albicans [20]
  inhibition: Active
Mus musculus [21]
  Activity: Active
